Literature values in patent publication US7993390B2, “Implantable or insertable medical device resistant to microbial growth and biofilm formation” (Boston Scientific Scimed, Inc., priority 2002, dated 2011).

System: most gram positive and gram negative aerobic and anaerobic bacteria, some yeast and fungi
Details: most organisms tested

In the case of `Oc1cc(Cl)ccc1Oc1ccc(Cl)cc1Cl` [triclosan], the MIC is given as under 0.3 ppm.
